Measured values published in patent publication US20250313528A1, “NOVEL COMPOUND AND PHARMACEUTICAL COMPOSITION FOR PREVENTING OR TREATING PULMONARY FIBROSIS COMPRISING SAME AS ACTIVE INGREDIENT” (GIL MEDICAL CENTER, priority 2022, published 2025).

Tests used:
[1] = test system: bleomycin (BLM)-induced pulmonary fibrosis animal models; experiment: H&E and Masson-trichrome histological evaluation of lung, BLM model; format: in vivo, C57BL/6N mice; conditions: BLM mice; for degree of fibrosis in the lung tissue: compared to the BLM group; for inflammation in lung tissue (H&E): both doses (Compound 1 200 and 500 μg/kg; Compound 2 100 and 200 μg/kg)
Description: (§1) Specifically, 7-week-old C57BL/6N mice were exposed to BLM (3-5 units/kg) via the airway. The compounds were administered orally at doses of 200 μg/kg and 500 μg/kg for Compound 1, and 100 μg/kg and 200 μg/kg for Compound 2, three times a week for three weeks starting the day after BLM exposure. Body weight gain was periodically measured during the experimental period, and lung weight was measured at the end of the experiment.
To observe changes in lung tissue, Hematoxylin and Eosin (H&E) staining and Masson-trichrome staining were performed on lung tissue samples to assess the degree of inflammation and fibrosis.
Specifically, the excised lung tissue was embedded in paraffin and sectioned into 4 μm slices using a microtome. These tissue sections were used for H&E, MT stain, and Immunohistochemistry (IHC). Each experiment was conducted by deparaffinizing and rehydrating the sections using xylene and ethanol. For IHC, the LSAB2 system HRP (DAKO, Carpinteria, CA, USA) kit was used. Antibody retrieval was performed in 0.1 mM citric acid (pH 6), and the experiment was conducted according to the provided instructions. The sections were blocked with blocking buffer at room temperature for 1 hour, then incubated overnight at 4° C. with primary antibodies (fibronectin, collagen 1, α-SMA). After blocking with secondary antibodies at room temperature for 1 hour, the Streptavidin-HRP system was used for 10 minutes, followed by exposure to DAB solution, hematoxylin staining, dehydration, clearing, and mounting with Canada balsam. The stained slides were examined under an optical microscope (BK51, Olympus, Japan). The staining results were quantified using the Image J program.

[2] = test system: TGF-β1 signaling pathway; experiment: Western blotting of proteins related to TGF-β1 signaling pathway in DHLF-IPF; format: cell-based, human; conditions: for expression level of Rock protein / expression levels of MRT/SRF in the cytoplasm and nucleus: increased by TGF-β1 treatment
Description: Specifically, to extract fibronectin and α-SMA proteins, the cells were washed once with cold PBS and then RIPA buffer (150 mM NaCl, 0.5% Triton X-100, 50 mM Tris-HCl, pH 7.4, 25 mM NaF, 20 mM EGTA), which was added with a protease inhibitor cocktail, was added thereto to lyse the cells. Then, the proteins were quantified using a BCA protein assay kit. All protein samples were subjected to electrophoresis at 10 μg on 8% to 10% PAGE gels and then transferred to 0.2 μm PVDF membranes (EMD Millipore, MA, USA). The membranes to which the protein was transferred were blocked with 5% BSA or 5% skim milk for 1 hour, and then primary antibodies were added thereto and incubated overnight at 4° C. The following day, the membranes were washed three times with PBST, and then HRP-conjugated secondary antibodies were added and reacted at room temperature for 1 hour. The PVDF membranes prepared through such procedures were smeared with ECL (Luminata™ Crescendo, EMD Millipore) and exposed to a fluorescence reader to confirm the level of protein expression.
The TGF-β1 signaling pathway can be activated through both Smad-dependent and Smad-independent pathways. The TGF-β/Smad signaling, which is a Smad-dependent pathway, is a crucial pathway that regulates the synthesis of extracellular matrix components. The Smad-independent (TGF-β/non-Smad) pathway is influenced by PI3K/AKT/mTOR and MAPK (JNK, ERK, p38), which are known to be involved in cell proliferation and growth. Based on this mechanism, the protein expression related to the TGF-β1 signaling pathway was comparatively analyzed using the same Western blotting method conducted in Example 2.

[3] = test system: bleomycin (BLM)-induced pulmonary fibrosis animal models; experiment: Body weight and lung weight in bleomycin-induced pulmonary fibrosis animal model; format: in vivo, C57BL/6N mice; conditions: BLM mice; for body weight gain during the experimental period: three times a week for three weeks; for lung weight: end of the experiment, vs normal group and BLM group
Description: The inhibitory effects of the finally selected Compound 1 and Compound 2 on pulmonary fibrosis were examined in bleomycin (BLM)-induced pulmonary fibrosis animal models.
as §1

[4] = test system: MRC-5 cells; experiment: Transwell migration assay, MRC-5; format: cell-based, human; conditions: MRC-5, TGF-β1 treatment, 24 hours, FIG. 5
Description: In accordance with the characteristics of myofibroblasts, in which the increased expression of proteins related to fibrogenesis leads to an increase of cell migration and invasion, migration and wound healing assays were conducted to examine the effects of the final selected Compound 1 and Compound 2 on cell migration using normal and diseased fibroblasts.
A 24-well culture plate was prepared with 500 μL of medium including FBS, and an 8 μm pore size insert was placed on top. Inside the insert, 300 μL of medium without FBS was added, and MRC-5 and DHLF-IPF cells were seeded at a density of 1×10^5 cells. […] After incubation, the medium inside the 8 μm pore polycarbonate membrane insert was carefully removed, washed with DPBS, and fixed in methanol for 5 minutes. The cells were then stained with Mayer's Haematoxylin for 8 minutes after washing twice with triple-distilled water. The stained cells were washed with DPBS, gently wiped with a cotton swab inside the insert, and the membrane was cut out and mounted on a slide. The migrated cells were counted under a microscope at 200× magnification.

[5] = test system: DHLF-IPF cells; experiment: Microscopic examination of cell morphology and proliferation, TGF-β1-induced DHLF-IPF; format: cell-based, human; conditions: microscope, FIG. 4a
Description: The effects of the two candidate compounds of sulforaphane prodrugs on cytotoxicity and morphological changes in normal lung fibroblast MRC-5 cells and diseased lung fibroblast DHLF-IPF cells were examined. The diseased lung fibroblast DHLF-IPF cell line was purchased from Lonza and cultured in FGM™-2 Fibroblast Growth Medium-2 BulletKit™ at 37° C. in a 5% CO2 incubator.
Additionally, the changes in cell morphology of two lung fibroblasts induced by TGF-β1 according to the treatments with Compound 1 and Compound 2 were examined with the naked eye through a microscope.

[6] = test system: MRC-5 cells; experiment: Wound healing assay, MRC-5; format: cell-based, human; conditions: MRC-5, TGF-β1 treatment, 24 hours, FIG. 6
Description: The effects of Compound 1 and Compound 2, selected in Example 3, on cell migration (wound healing) in MRC-5 and DHLF-IPF cells were examined.
Specifically, cells (1×10^5 cells/well) were seeded in a 60 mm dish to achieve approximately 90% confluency and cultured for 24 hours. Subsequently, a straight line was scratched on the bottom with a 200 μL pipette tip, and the detached cells were removed by washing once with Dulbecco's Phosphate-Buffered Saline (DPBS). The wound was photographed under a microscope, and treatments with TGF-β1 alone, TGF-β1+SFN, TGF-β1+GSF-016, and TGF-1+GSF-018 were applied and cultured for approximately 24 hours, after which the wound was re-photographed. The images taken at 24 hours of culture were analyzed using the Image J (Fiji package) software to measure the distance between cells, and the relative migration was expressed as a percentage (%) compared to the control group.

SMILES | degree of fibrosis in the lung tissue ([1]; 200 μg/kg) | inflammation in lung tissue (H&E) [1] | activity of p-AKT ([2]; TGF-β1) | activity of p-p38 ([2]; TGF-β1) | phosphorylation of Smad-2 ([2]; TGF-β1) | phosphorylation of Smad-7 ([2]; TGF-β1) | expression level of Rock protein [2] | expression levels of MRT/SRF in the cytoplasm and nucleus [2] | body weight gain during the experimental period ([3]; 200 μg/kg orally) | cell migration (transwell) [4] | cell morphology [5] | inhibition of cell proliferation compared to sulforaphane-treated group [5] | cell migration (wound healing) [6] | also measured
CCOC(=O)C(CSC(=S)NCCCC[S+](C)[O-])NC(C)=O (centres unmarked) [Compound 1] | significantly reduced | significant reduction in inflammation regardless of concentration | significantly reducing the activity | significantly reducing the activity | inhibited | increased | significantly reduced | significantly reduced | steady increase | significantly inhibited in a dose-dependent manner | thin and elongated shape, which is similar to that of the control group | inhibition of cell proliferation was more significant | significantly inhibited in a dose-dependent manner | degree of fibrosis in the lung tissue ([1]; 500 μg/kg): significantly reduced; body weight gain during the experimental period ([3]; 500 μg/kg orally): initially decreased and then gradually increased
C=CCOC(=O)C(CSC(=S)NCCCC[S+](C)[O-])NC(C)=O (centres unmarked) [Compound 2] | significantly reduced | significant reduction in inflammation at both concentrations | significantly reduced the activity | reducing the activity | inhibited | increased | significantly reduced | significantly reduced | steady increase in body weight, approaching levels similar to the normal group | significantly inhibited in a dose-dependent manner | thin and elongated shape, which is similar to that of the control group | inhibition of cell proliferation was more significant | significantly inhibited in a dose-dependent manner | degree of fibrosis in the lung tissue ([1]; 100 μg/kg): significantly reduced; activity of p-ERK ([2]; TGF-β1): reducing the activity; activity of p-JNK ([2]; TGF-β1): reducing the activity; phosphorylation of Smad-3 ([2]; TGF-β1): inhibited; lung weight ([3]; 100 μg/kg orally): similarly lower levels; body weight gain during the experimental period ([3]; 100 μg/kg orally): steady increase in body weight, approaching levels similar to the normal group; lung weight ([3]; 200 μg/kg orally): similarly lower levels
